In general, IC50 refers to the concentration at which inhibition is half-maximal.

For the assay, the system named is A549 cells. Nature of the assay: cells. The settings on record: Homo sapiens, A549, 72 h, read-out: IC50, cytotoxicity for A549.

On to `CC[C@@]1(O)C(=O)OCc2c1cc1n(c2=O)Cc2cc3ccccc3nc2-1` [CPT, Camptothecin], for which the IC50 was 260 nM.

For the origin of these results see publication PMC11278161 (Marine Drugs, 2024).
